Assay results from patent US20240083853A1, “HSD17B13 INHIBITORS AND USES THEREOF” (FL2022-001, Inc., priority 2020, published 2024).

What follows are molecules tested against T1, Recombinant human HSD17B13 enzyme (Homo sapiens, UniProt Q7Z5P4) (assay: HSD17b13 NAD(P)H-Glo biochemical assay). Conditions: 50 uM estradiol, 1 mM NAD+, NAD(P)H-Glo luminescence; read-out: HSD17β13 IC50.
T1 sequence (Q7Z5P4 20-300): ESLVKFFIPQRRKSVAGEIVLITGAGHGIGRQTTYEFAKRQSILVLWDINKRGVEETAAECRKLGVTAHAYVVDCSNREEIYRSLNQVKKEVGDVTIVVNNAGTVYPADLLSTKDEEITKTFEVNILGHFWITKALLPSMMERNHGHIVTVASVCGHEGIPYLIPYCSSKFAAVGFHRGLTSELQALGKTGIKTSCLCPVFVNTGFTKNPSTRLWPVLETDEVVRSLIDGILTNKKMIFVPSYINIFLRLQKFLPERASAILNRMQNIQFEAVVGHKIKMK
In short: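 Luminescent NAD(P)H-Glo read-out, taken after 1 hour at RT, measured cofactor reduction. Substrate and cofactor were estradiol at 50 uM and NAD+ at 1 mM final, reacted with the recombinant human enzyme for 3 hours at 37° C in 20 mM Tris pH7.4, 0.002% Tween-20, 0.02% BSA. Compound was pre-incubated with enzyme for 20 minutes at RT.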

`CC(C)C1CN(c2ccc(-n3ncc4cc(F)c(O)c(F)c43)cc2)C1` [Compound 24.3, 5,7-Difluoro-1-(4-(3-isopropylazetidin-1-yl)phenyl)-1H-indazol-6-ol] and `C[C@H]1CN(c2ccc(-n3ncc4cc(F)c(O)c(F)c43)cc2)C[C@H](C)O1` [Compound 24.9, 1-(4-((2S,6S)-2,6-Dimethylmorpholino)phenyl)-5,7-difluoro-1H-indazol-6-ol] cannot be ordered by IC50: under 100 nM for the first, under 100 nM for the second.

`CCC1(C)CN(c2ccc(-n3ncc4cc(F)c(O)c(F)c43)cc2)C1` [Compound 24.4, 1-(4-(3-Ethyl-3-methylazetidin-1-yl)phenyl)-5,7-difluoro-1H-indazol-6-ol] and `CCC1(C)CCN(c2ccc(-n3ncc4cc(F)c(O)c(F)c43)cc2)CC1` [Compound 24.5, 1-(4-(4-Ethyl-4-methylpiperidin-1-yl)phenyl)-5,7-difluoro-1H-indazol-6-ol] cannot be ordered by IC50: under 100 nM for the first, under 100 nM for the second.

`CC(C)C1(C)CCN(c2ccc(-n3ncc4cc(F)c(O)c(F)c43)cc2)CC1` [Compound 24.6, 5,7-Difluoro-1-(4-(4-isopropyl-4-methylpiperidin-1-yl)phenyl)-1H-indazol-6-ol] and `CCC1(CC)CCN(c2ccc(-n3ncc4cc(F)c(O)c(F)c43)cc2)CC1` [Compound 24.7, 1-(4-(4,4-Diethylpiperidin-1-yl)phenyl)-5,7-difluoro-1H-indazol-6-ol] cannot be ordered by IC50: under 100 nM for the first, under 100 nM for the second.

First: CC1(C(F)(F)F)CCN(c2ccc(-n3ncc4cc(F)c(O)c(F)c43)cc2)CC1 [Compound 24.8, 5,7-Difluoro-1-(4-(4-methyl-4-(trifluoromethyl)piperidin-1-yl)phenyl)-1H-indazol-6-ol]
Second: Oc1c(F)cc2cnn(-c3ccc(N4CCC5(CCO5)CC4)cc3)c2c1F [Compound 26.1, 1-(4-(1-Oxa-7-azaspiro[3.5]nonan-7-yl)phenyl)-5,7-difluoro-1H-indazol-6-ol]
The IC50 of the first is lower: under 100 nM for the first, 100 to 1000 nM for the second.

First: C[C@@H]1CN(c2ccc(-n3ncc4cc(F)c(O)c(F)c43)cc2)C[C@@H](C)O1 [Compound 24.10, 1-(4-((2R,6R)-2,6-Dimethylmorpholino)phenyl)-5,7-difluoro-1H-indazol-6-ol]
Second: O=S1(=O)CCC2(CC1)CN(c1ccc(-n3ncc4cc(F)c(O)c(F)c43)cc1)C2 [Compound 24.11, 2-(4-(5,7-Difluoro-6-hydroxy-1H-indazol-1-yl)phenyl)-7-thia-2-azaspiro[3.5]nonane 7,7-dioxide]
The IC50 of the first is lower: under 100 nM for the first, 100 to 1000 nM for the second. The first is the more potent here.

`CS(=O)(=O)N1CCN(c2ccc(-n3ncc4cc(F)c(O)c(Cl)c43)cc2)CC1` [Compound 25, 7-Chloro-5-fluoro-1-(4-(4-(methylsulfonyl)piperazin-1-yl)phenyl)-1H-indazol-6-ol] and `CS(=O)(=O)N1CCN(c2ccc(-n3ncc4cc(F)c(O)c(F)c43)cn2)CC1` [Compound 26.2, 5,7-Difluoro-1-(6-(4-(methylsulfonyl)piperazin-1-yl)pyridin-3-yl)-1H-indazol-6-ol] fall in the same range of IC50: 100 to 1000 nM for the first, 100 to 1000 nM for the second.

Compared with `CC1(C)CCN(c2ccc(-n3ncc4c(C(F)(F)F)c(F)c(O)cc43)cc2)CC1` [Compound 25.1, 1-(4-(4,4-Dimethylpiperidin-1-yl)phenyl)-5-fluoro-4-(trifluoromethyl)-1H-indazol-6-ol], `Cc1c(O)c(F)cc2cnn(-c3ccc(N4CCC(C)(C)CC4)cc3)c12` [Compound 25.6, 1-(4-(4,4-Dimethylpiperidin-1-yl)phenyl)-5-fluoro-7-methyl-1H-indazol-6-ol] is lower in IC50: 100 to 1000 nM for the first, under 100 nM for the second.

First: CC1(C)CCN(c2ccc(-n3ncc4cc(F)c(O)nc43)cc2)CC1 [Compound 25.2, 1-(4-(4,4-Dimethylpiperidin-1-yl)phenyl)-5-fluoro-1H-pyrazolo[3,4-b]pyridin-6-ol]
Second: CC1(C)CCN(c2ccc(-n3ncc4cc(F)c(O)c(C#N)c43)cc2)CC1 [Compound 26.10, 1-(4-(4,4-Dimethylpiperidin-1-yl)phenyl)-5-fluoro-6-hydroxy-1H-indazole-7-carbonitrile]
The IC50 of the first is higher: 1000 to 30000 nM for the first, 100 to 1000 nM for the second. The second is the more potent here.

`CC1(C)CCN(c2ccc(-n3ncc4cc(F)c(O)c(F)c43)cn2)CC1` [Compound 26, 1-(6-(4,4-Dimethylpiperidin-1-yl)pyridin-3-yl)-5,7-difluoro-1H-indazol-6-ol] and `CC1(C)CCN(c2ccc(-n3ncc4cc(F)c(O)c(F)c43)nc2)CC1` [Compound 26.3, 1-(5-(4,4-Dimethylpiperidin-1-yl)pyridin-2-yl)-5,7-difluoro-1H-indazol-6-ol] cannot be ordered by IC50: under 100 nM for the first, under 100 nM for the second.

First: CS(=O)(=O)N1CCN(c2ccc(-n3ncc4cc(F)c(O)c(F)c43)nc2)CC1 [Compound 26.4, 5,7-Difluoro-1-(5-(4-(methylsulfonyl)piperazin-1-yl)pyridin-2-yl)-1H-indazol-6-ol]
Second: CS(=O)(=O)N1CCN(c2cnc(-n3ncc4cc(F)c(O)c(F)c43)cn2)CC1 [Compound 26.7, 5,7-Difluoro-1-(5-(4-(methylsulfonyl)piperazin-1-yl)pyrazin-2-yl)-1H-indazol-6-ol]
The IC50 of the first is higher: 1000 to 30000 nM for the first, 100 to 1000 nM for the second.

First: CC1(C)CCN(c2cnc(-n3ncc4cc(F)c(O)c(F)c43)cn2)CC1 [Compound 26.6, 1-(5-(4,4-Dimethylpiperidin-1-yl)pyrazin-2-yl)-5,7-difluoro-1H-indazol-6-ol]
Second: CC1(C)CCN(c2cnc(-n3ncc4cc(F)c(O)c(F)c43)nc2)CC1 [Compound 26.8, 1-(5-(4,4-Dimethylpiperidin-1-yl)pyrimidin-2-yl)-5,7-difluoro-1H-indazol-6-ol]
The IC50 of the first is lower: under 100 nM for the first, 100 to 1000 nM for the second. The first is the more potent here.

`CS(=O)(=O)N1CCN(c2cnc(-n3ncc4cc(F)c(O)c(F)c43)nc2)CC1` [Compound 26.9, 5,7-Difluoro-1-(5-(4-(methylsulfonyl)piperazin-1-yl)pyrimidin-2-yl)-1H-indazol-6-ol] and `CS(=O)(=O)N1CCN(c2ccc(-n3nnc4cc(F)c(O)c(F)c43)nc2)CC1` [Compound 26.16, 5,7-Difluoro-1-(5-(4-(methylsulfonyl)piperazin-1-yl)pyridin-2-yl)-1H-benzo[d][1,2,3]triazol-6-ol] fall in the same range of IC50: 100 to 1000 nM for the first, 100 to 1000 nM for the second.

`CC1(C)CCN(c2ccc(-n3nnc4cc(F)c(O)c(F)c43)cn2)CC1` [Compound 26.11, 1-(6-(4,4-Dimethylpiperidin-1-yl)pyridin-3-yl)-5,7-difluoro-1H-benzo[d][1,2,3]triazol-6-ol] and `CC1(C)CCN(c2ccc(-n3nnc4cc(F)c(O)c(F)c43)nc2)CC1` [Compound 26.14, 1-(5-(4,4-Dimethylpiperidin-1-yl)pyridin-2-yl)-5,7-difluoro-1H-benzo[d][1,2,3]triazol-6-ol] cannot be ordered by IC50: under 100 nM for the first, under 100 nM for the second.

`Oc1c(F)cc2nnn(-c3ccc(N4CC5(CCOCC5)C4)nc3)c2c1F` [Compound 26.12, 1-(6-(7-Oxa-2-azaspiro[3.5]nonan-2-yl)pyridin-3-yl)-5,7-difluoro-1H-benzo[d][1,2,3]triazol-6-ol] and `Oc1c(F)cc2nnn(-c3ccc(N4CC5(CCOCC5)C4)cn3)c2c1F` [Compound 26.15, 1-(5-(7-Oxa-2-azaspiro[3.5]nonan-2-yl)pyridin-2-yl)-5,7-difluoro-1H-benzo[d][1,2,3]triazol-6-ol] fall in the same range of IC50: 100 to 1000 nM for the first, 100 to 1000 nM for the second.

`CS(=O)(=O)N1CCN(c2ccc(-n3nnc4cc(F)c(O)c(F)c43)cn2)CC1` [Compound 26.13, 5,7-Difluoro-1-(6-(4-(methylsulfonyl)piperazin-1-yl)pyridin-3-yl)-1H-benzo[d][1,2,3]triazol-6-ol] and `CS(=O)(=O)N1CCN(c2cnc(-n3nnc4cc(F)c(O)c(F)c43)cn2)CC1` [Compound 26.19, 5,7-Difluoro-1-(5-(4-(methylsulfonyl)piperazin-1-yl)pyrazin-2-yl)-1H-benzo[d][1,2,3]triazol-6-ol] fall in the same range of IC50: 100 to 1000 nM for the first, 100 to 1000 nM for the second.

Compared with `CC1(C)CCN(c2cnc(-n3nnc4cc(F)c(O)c(F)c43)cn2)CC1` [Compound 26.17, 1-(5-(4,4-Dimethylpiperidin-1-yl)pyrazin-2-yl)-5,7-difluoro-1H-benzo[d][1,2,3]triazol-6-ol], `Oc1c(F)cc2nnn(-c3cnc(N4CC5(CCOCC5)C4)cn3)c2c1F` [Compound 26.18, 1-(5-(7-Oxa-2-azaspiro[3.5]nonan-2-yl)pyrazin-2-yl)-5,7-difluoro-1H-benzo[d][1,2,3]triazol-6-ol] is higher in IC50: under 100 nM for the first, 100 to 1000 nM for the second.

Same assay, conditions: 3 h; at 10 uM compound; read-out: HSD17β13 % at 10 uM

`Cc1c(O)c(F)cc2cnn(-c3ccc(N4CCN(S(C)(=O)=O)CC4)cc3)c12` [Compound 24.12, 5-Fluoro-7-methyl-1-(4-(4-(methylsulfonyl)piperazin-1-yl)phenyl)-1H-indazol-6-ol] and `CS(=O)(=O)N1CCN(c2ccc(-n3ncc4cc(F)c(O)nc43)cc2)CC1` [Compound 25.3, 5-Fluoro-1-(4-(4-(methylsulfonyl)piperazin-1-yl)phenyl)-1H-pyrazolo[3,4-b]pyridin-6-ol] are the same in inhibition at 10 µM: 35% for the first, 35% for the second.

`CC1(C)CCN(c2ccc(-n3ncc4cnc(O)c(F)c43)cc2)CC1` [Compound 25.4, 1-(4-(4,4-Dimethylpiperidin-1-yl)phenyl)-7-fluoro-1H-pyrazolo[4,3-c]pyridin-6-ol] and `CS(=O)(=O)N1CCN(c2ccc(-n3ncc4cnc(O)c(F)c43)cc2)CC1` [Compound 25.5, 7-Fluoro-1-(4-(4-(methylsulfonyl)piperazin-1-yl)phenyl)-1H-pyrazolo[4,3-c]pyridin-6-ol] cannot be ordered by inhibition at 10 µM: under 20% for the first, under 20% for the second.

For `CS(=O)(=O)N1CCN(c2ccc(-n3ncc4ccc(O)cc43)cc2)CC1` [Compound 26.5, 1-(4-(4-(Methylsulfonyl)piperazin-1-yl)phenyl)-1H-indazol-6-ol], the inhibition at 10 µM was 35%.
